Paper PMC8344243, “Design, synthesis, docking, ADMET studies, and anticancer evaluation of new 3-methylquinoxaline derivatives as VEGFR-2 inhibitors and apoptosis inducers” (Journal of Enzyme Inhibition and Medicinal Chemistry, 2021)
Where “and” joins values, the source holds several entries; their conditions need not be identical. Identical values can stand only once. One block for each compound: values may come before it.

How the values were obtained:
BAX/Bcl-2 ratio = BAX/Bcl-2 ratio in HepG2 cells (Western blot); type: cell-based
Protocol: (§1) In this study, BAX and Bcl-2 expression levels in the HepG2 cell line after the treatment with compound 27a were determined by quantitative Western blotting. […] Also, it decreased the Bcl-2 level by 2-fold less than the control cells. In addition, the BAX/Bcl-2 ratio was increased 5-fold in the treated cells compared to the control cell (Table 4 and Figure 6). Meanwhile, compound 27a increased BAX/Bcl-2 ratio, it could trigger apoptosis in the experienced cells[90]^,[91].

HepG2 cells [1] = test: Annexin V and PI double staining apoptosis assay; type: cell-based; settings: 4.5 µM, 24 h
Protocol: As compound 27a produced a high accumulation of HepG2 cells at the G2/M phase, such compound was further investigated for its apoptotic effect using Annexin V and PI double staining assay. In such a procedure, HepG2 cells were treated with compound 27a at a concentration of 4.5 µM and incubated for 24 h.
Apoptosis analysis for compound 27a in HepG2 cells was carried out using Annexin V-FITC as shown in Supplementary Data[30]^,[86].

human VEGFR-2 = molecular target: T1, human VEGFR-2 (Homo sapiens, UniProt P35968); test: In vitro VEGFR-2 enzyme inhibition assay (ELISA kit, HepG2 cell line); type: biochemical; settings: human VEGFR-2 in HepG2 cell line
T1 construct: endogenous in cells; host or cells: HepG2
T1 sequence (P35968 20-1356): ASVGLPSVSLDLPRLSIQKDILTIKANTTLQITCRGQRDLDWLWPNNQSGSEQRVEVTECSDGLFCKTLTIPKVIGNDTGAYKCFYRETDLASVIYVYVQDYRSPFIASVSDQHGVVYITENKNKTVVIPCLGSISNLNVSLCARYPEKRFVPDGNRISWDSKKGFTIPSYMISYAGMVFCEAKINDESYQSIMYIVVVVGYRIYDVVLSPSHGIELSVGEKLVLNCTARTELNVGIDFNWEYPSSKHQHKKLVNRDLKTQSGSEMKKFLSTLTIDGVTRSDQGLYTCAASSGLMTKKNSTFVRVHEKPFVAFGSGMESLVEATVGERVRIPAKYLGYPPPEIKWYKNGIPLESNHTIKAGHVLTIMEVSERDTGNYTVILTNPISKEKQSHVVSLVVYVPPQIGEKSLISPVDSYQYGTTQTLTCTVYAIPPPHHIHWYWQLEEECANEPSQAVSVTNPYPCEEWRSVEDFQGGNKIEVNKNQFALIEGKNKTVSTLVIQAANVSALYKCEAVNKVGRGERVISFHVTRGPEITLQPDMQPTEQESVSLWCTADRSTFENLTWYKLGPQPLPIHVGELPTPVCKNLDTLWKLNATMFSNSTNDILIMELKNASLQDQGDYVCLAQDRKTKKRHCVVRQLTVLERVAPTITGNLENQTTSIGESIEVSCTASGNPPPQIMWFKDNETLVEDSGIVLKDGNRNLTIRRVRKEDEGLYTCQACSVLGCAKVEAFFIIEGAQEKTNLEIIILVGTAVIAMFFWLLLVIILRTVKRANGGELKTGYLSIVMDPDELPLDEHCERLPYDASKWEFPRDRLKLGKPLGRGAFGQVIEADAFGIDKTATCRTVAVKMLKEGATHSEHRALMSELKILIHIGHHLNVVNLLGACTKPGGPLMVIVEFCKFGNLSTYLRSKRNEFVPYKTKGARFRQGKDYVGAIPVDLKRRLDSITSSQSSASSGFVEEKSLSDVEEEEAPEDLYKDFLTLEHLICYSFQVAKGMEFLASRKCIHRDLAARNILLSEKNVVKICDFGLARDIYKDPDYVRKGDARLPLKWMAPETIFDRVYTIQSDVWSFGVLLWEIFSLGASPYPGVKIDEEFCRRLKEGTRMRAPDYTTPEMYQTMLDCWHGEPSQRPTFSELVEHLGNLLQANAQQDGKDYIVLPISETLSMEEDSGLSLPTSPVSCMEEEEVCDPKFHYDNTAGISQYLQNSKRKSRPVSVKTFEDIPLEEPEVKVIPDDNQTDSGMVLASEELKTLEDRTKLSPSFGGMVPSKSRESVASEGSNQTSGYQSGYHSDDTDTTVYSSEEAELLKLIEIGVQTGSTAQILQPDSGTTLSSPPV
Description: The synthesised compounds were estimated for their in vitro inhibition on human VEGFR-2 in HepG2 cell line; using ELISA kit[96] as described in Supplementary Data.

caspase-9 = test: Active caspase-9 level in HepG2 cells (Western blot); type: cell-based; settings: 4.5 µM, 24 h
MCF-7 = test: MTT anti-proliferative assay, MCF-7; type: cell-based; settings: for IC50: Homo sapiens, MCF7, MCF-7, MTT assay, read-out: Cytotoxicity on cancer cells IC50, MCF-7
Protocol: (§2) In vitro cytotoxic activities of the synthesised compounds were evaluated against two different cancer cell lines; breast cancer (MCF-7) and hepatocellular carcinoma (HepG2) using standard MTT colorimetric assay as described by Mosmann[78]^,[79]. […].
(§3) The in vitro antiproliferative activities were assessed using the MTT assay protocol[78]^,[79]^,[95]. As shown in Supplementary Data.

primary rat hepatocytes = test: Cytotoxicity against primary rat hepatocytes (normal hepatic cells); type: cell-based; settings: HepG2 vs primary rat hepatocytes
Description: (§4) It is of high importance for anticancer agents to have minimum side effects on normal cells. […].

[2] = as above; type: cell-based; settings: rat, primary rat hepatocytes
Description: as §4

HepG2 = test: MTT anti-proliferative assay, HepG2; type: cell-based; settings: Homo sapiens, read-out: Cytotoxicity on cancer cells IC50, HepG2
Protocol: as §2, §3

HepG2 cells [3] = test: Flow cytometry cell cycle analysis; type: cell-based; settings: 4.5 µM, 24 h
Protocol: The cell cycle parameters of the incubated cells were compared with untreated control cells (Table 2 and Figure 4).

Bcl-2 = Bcl-2 expression level in HepG2 cells (Western blot); type: cell-based
Protocol: as §1

caspase-3 = test: Active caspase-3 level in HepG2 cells (Western blot); type: cell-based; settings: 4.5 µM, 24 h
BAX = BAX expression level in HepG2 cells (Western blot); type: cell-based
Protocol: as §1

SMILES: Cc1nc2ccccc2n(CC(=O)Nc2ccc(C(=O)NC(C)(C)C)cc2)c1=O [Compound 27a, N-(tert-butyl)-4-(2-(3-methyl-2-oxoquinoxalin-1(2H)-yl)acetamido)benzamide]
Increase of BAX/Bcl-2 ratio compared to control cells (BAX/Bcl-2 ratio): 5 fold
Protein expression (normalised to β-actin), BAX/Bcl-2 ratio (BAX/Bcl-2 ratio; 24 h, control = 1.00): 5.03 ± 0.36
Apoptosis, Early (right bottom) (HepG2 cells [1]): 40.47% and 40.47 ± 2.55 %
Apoptosis, Late (right top) (HepG2 cells [1]): 0.35% and 0.35 ± 0.06%
Increase of apoptosis compared to untreated cells (HepG2 cells [1]): about five times
Necrosis (left top) (HepG2 cells [1]): 0.20 ± 0.04
Viable (left bottom) (HepG2 cells [1]): 58.98 ± 2.64
IC50 (human VEGFR-2): 0.0032 µM
Increase in the level of caspase-9 compared to control cells (caspase-9): 3.43 fold
Protein expression (normalised to β-actin), Caspases-9 (caspase-9; control = 1.00): 3.43 ± 0.49
IC50 (MCF-7): 7.7 µM
Cytotoxic activity against cancer HepG2 cell line more than against normal hepatic cells (primary rat hepatocytes): 4.5 fold
IC50 [2]: 19.9 µM
IC50 (HepG2): 4.5 µM
Accumulation of cells at G2/M compared to control cells (HepG2 cells [3]): 3.5 fold
Cell cycle distribution %G1 (HepG2 cells [3]): 37.66% and 37.66 ± 2.16 %
Cell cycle distribution %G2/M (HepG2 cells [3]): 34.14% and 34.14 ± 1.22 %
Cell cycle distribution %S (HepG2 cells [3]): 26.96% and 26.96 ± 1.55%
Cell cycle distribution %Sub-G1 (HepG2 cells [3]): 1.24% and 1.24 ± 0.17%
Decrease in the Bcl-2 level compared to control cells (Bcl-2): 2 fold
Protein expression (normalised to β-actin), Bcl-2 (Bcl-2; 24 h, control = 1.00): 0.52 ± 0.02
Increase in the level of caspase-3 compared to control cells (caspase-3): 2.5 fold
Protein expression (normalised to β-actin), Caspases-3 (caspase-3; control = 1.00): 2.51 ± 0.27
Increase in the BAX level compared to control cells (BAX): 2.6 fold
Protein expression (normalised to β-actin), BAX (BAX; 24 h, control = 1.00): 2.60 ± 0.20

SMILES: Cc1cccc(C)c1NC(=O)c1ccc(NC(=O)Cn2c(=O)c(C)nc3ccccc32)cc1 [Compound 27d, N-(2,6-Dimethylphenyl)-4-(2-(3-methyl-2-oxoquinoxalin-1(2H)-yl)acetamido)-benzamide]
IC50 (human VEGFR-2): 0.0218 µM
IC50 (MCF-7): 30.7 µM
melting point: 240 to 242 °C
IC50 (HepG2): 24.1 µM

SMILES: Cc1nc2ccccc2n(CC(=O)Nc2ccc(C(=O)Nc3ccc(Cl)cn3)cc2)c1=O [Compound 27f, N-(5-Chloropyridin-2-yl)-4-(2-(3-methyl-2-oxoquinoxalin-1(2H)-yl)acetamido)-benzamide]
IC50 (human VEGFR-2): 0.0107 µM
IC50 (MCF-7): 22.7 µM
melting point: > 300 °C
IC50 (HepG2): 19.7 µM

SMILES: Cc1nc2ccccc2n(CC(=O)Nc2ccc(C(=O)NNC(=O)c3ccc([N+](=O)[O-])cc3)cc2)c1=O [Compound 28, 2-(3-Methyl-2-oxoquinoxalin-1(2H)-yl)-N-(4-(2-(4-nitrobenzoyl)hydrazine-1-carbonyl)phenyl)acetamide]
IC50 (human VEGFR-2): 0.0042 µM
IC50 (MCF-7): 17.2 µM
IC50 (HepG2): 11.7 µM

SMILES: Cc1nc2ccccc2n(CC(=O)Nc2ccc(C(=O)NNc3ccccc3)cc2)c1=O [Compound 29, 2-(3-Methyl-2-oxoquinoxalin-1(2H)-yl)-N-(4-(2-phenylhydrazine-1-carbonyl)phenyl) acetamide]
IC50 (human VEGFR-2): 0.0098 µM
IC50 (MCF-7): 23.5 µM
IC50 (HepG2): 17.5 µM

SMILES: Cc1nc2ccccc2nc1SCC(=O)Nc1ccc(C(=O)NCCc2ccccc2)cc1 [Compound 30d, 4-(2-((3-Methylquinoxalin-2-yl)thio)acetamido)-N-phenethylbenzamide]
IC50 (human VEGFR-2): 0.0157 µM
IC50 (MCF-7): 42.7 µM
melting point: 220 to 222 °C
IC50 (HepG2): 32.4 µM

SMILES: Cc1ccccc1NC(=O)c1ccc(NC(=O)CSc2nc3ccccc3nc2C)cc1 [Compound 30f, 4-(2-((3-Methylquinoxalin-2-yl)thio)acetamido)-N-(o-tolyl)benzamide]
IC50 (human VEGFR-2): 0.0049 µM
IC50 (MCF-7): 18.1 µM
Cytotoxic activity against cancer HepG2 cell line more than against normal hepatic cells (primary rat hepatocytes): 1.5 fold
IC50 [2]: 15.7 µM
IC50 (HepG2): 10.7 µM

SMILES: COc1cccc(OC)c1NC(=O)c1ccc(NC(=O)CSc2nc3ccccc3nc2C)cc1 [Compound 30g, N-(2,6-Dimethoxyphenyl)-4-(2-((3-methylquinoxalin-2-yl)thio)acetamido) benzamide]
IC50 (human VEGFR-2): 0.0389 µM
IC50 (MCF-7): 61.7 µM
Activity against the MCF-7 cell line (in words) (MCF-7): inactive
IC50 (HepG2): 40.8 µM

SMILES: Cc1nc2ccccc2nc1SCC(=O)Nc1ccc(C(=O)Nc2ccc(Cl)cn2)cc1 [Compound 30i, N-(5-Chloropyridin-2-yl)-4-(2-((3-methylquinoxalin-2-yl)thio)acetamido)benzamide]
IC50 (human VEGFR-2): 0.0061 µM
IC50 (MCF-7): 17.2 µM
IC50 (HepG2): 12.7 µM

SMILES: Cc1nc2ccccc2nc1SCC(=O)Nc1ccc(C(=O)NNC(=O)c2ccccc2)cc1 [Compound 31a, N-(4-(2-benzoylhydrazine-1-carbonyl)phenyl)-2-((3-methylquinoxalin-2-yl)thio) acetamide]
IC50 (human VEGFR-2): 0.0107 µM
IC50 (MCF-7): 23.1 µM
IC50 (HepG2): 18.7 µM

SMILES: Cc1nc2ccccc2nc1SCC(=O)Nc1ccc(C(=O)NNc2ccccc2)cc1 [Compound 32, 2-((3-Methylquinoxalin-2-yl)thio)-N-(4-(2-phenylhydrazine-1-carbonyl)phenyl) acetamide]
IC50 (human VEGFR-2): 0.0238 µM
IC50 (MCF-7): 59.5 µM
Activity against the MCF-7 cell line (in words) (MCF-7): inactive
IC50 (HepG2): 41.3 µM

SMILES: CNC(=O)c1cc(Oc2ccc(NC(=O)Nc3ccc(Cl)c(C(F)(F)F)c3)cc2)ccn1 [Sorafenib, reference compound]
Cytotoxic activity against cancer HepG2 cell line more than against normal hepatic cells (primary rat hepatocytes): 8 fold
IC50 [2]: 17.3 µM
IC50 (HepG2): 2.17 µM

Continued, in another order:

IC50 (human VEGFR-2): 0.0225 µM
melting point: 283 to 285 °C
SMILES: Cc1nc2ccccc2n(CC(=O)Nc2ccc(C(=O)NCCc3ccccc3)cc2)c1=O [Compound 27b, 4-(2-(3-Methyl-2-oxoquinoxalin-1(2H)-yl)acetamido)-N-phenethylbenzamide]
IC50 (MCF-7): 62.3 µM
Activity against the MCF-7 cell line (in words) (MCF-7): inactive
IC50 (HepG2): 41.5 µM

IC50 (human VEGFR-2): 0.0116 µM
melting point: > 300 °C
SMILES: COc1cccc(OC)c1NC(=O)c1ccc(NC(=O)Cn2c(=O)c(C)nc3ccccc32)cc1 [Compound 27c, N-(2,6-Dimethoxyphenyl)-4-(2-(3-methyl-2-oxoquinoxalin-1(2H)-yl)acetamido)-benzamide]
IC50 (MCF-7): 57.2 µM
Activity against the MCF-7 cell line (in words) (MCF-7): inactive
IC50 (HepG2): 42.6 µM

IC50 (human VEGFR-2): 0.0217 µM
melting point: > 300 °C
SMILES: Cc1nc2ccccc2n(CC(=O)Nc2ccc(C(=O)Nc3ccc([N+](=O)[O-])cc3)cc2)c1=O [Compound 27e, 4-(2-(3-Methyl-2-oxoquinoxalin-1(2H)-yl)acetamido)-N-(4-nitrophenyl)benzamide]
IC50 (MCF-7): 42.3 µM
IC50 (HepG2): 27.5 µM

IC50 (human VEGFR-2): 0.0298 µM
melting point: 231 to 233 °C
SMILES: Cc1nc2ccccc2nc1SCC(=O)Nc1ccc(C(=O)NC(C)(C)C)cc1 [Compound 30a, N-(tert-Butyl)-4-(2-((3-methylquinoxalin-2-yl)thio)acetamido)benzamide]
IC50 (MCF-7): 61.9 µM
Activity against the MCF-7 cell line (in words) (MCF-7): inactive
IC50 (HepG2): 43.7 µM

IC50 (human VEGFR-2): 0.0087 µM
SMILES: Cc1nc2ccccc2nc1SCC(=O)Nc1ccc(C(=O)NC2CCCCC2)cc1 [Compound 30b, N-Cyclohexyl-4-(2-((3-methylquinoxalin-2-yl)thio)acetamido)benzamide]
IC50 (MCF-7): 43.8 µM
IC50 (HepG2): 34.2 µM

IC50 (human VEGFR-2): 0.0138 µM
melting point: 235 to 237 °C
SMILES: Cc1nc2ccccc2nc1SCC(=O)Nc1ccc(C(=O)NCc2ccccc2)cc1 [Compound 30c, N-benzyl-4-(2-((3-methylquinoxalin-2-yl)thio)acetamido)benzamide]
IC50 (MCF-7): 41.9 µM
IC50 (HepG2): 34.1 µM

IC50 (human VEGFR-2): 0.0274 µM
SMILES: Cc1nc2ccccc2nc1SCC(=O)Nc1ccc(C(=O)Nc2ccccc2)cc1 [Compound 30e, 4-(2-((3-Methylquinoxalin-2-yl)thio)acetamido)-N-phenylbenzamide]
IC50 (MCF-7): 31.3 µM
IC50 (HepG2): 24.3 µM

IC50 (human VEGFR-2): 0.0118 µM
melting point: 200 to 202 °C
SMILES: Cc1nc2ccccc2nc1SCC(=O)Nc1ccc(C(=O)Nc2ccc([N+](=O)[O-])cc2)cc1 [Compound 30h, 4-(2-((3-Methylquinoxalin-2-yl)thio)acetamido)-N-(4-nitrophenyl)benzamide]
IC50 (MCF-7): 21.3 µM
IC50 (HepG2): 17.7 µM

IC50 (human VEGFR-2): 0.0051 µM
melting point: 196 to 198 °C
SMILES: Cc1nc2ccccc2nc1SCC(=O)Nc1ccc(C(=O)NNC(=O)c2ccc([N+](=O)[O-])cc2)cc1 [Compound 31b, 2-((3-Methylquinoxalin-2-yl)thio)-N-(4-(2-(4-nitrobenzoyl)hydrazine-1-carbonyl)phenyl) acetamide]
IC50 (MCF-7): 19.2 µM
IC50 (HepG2): 13.7 µM
